From patent US10722496B2, “2-iminobiotin for use in the treatment of brain cell injury” (Neurophyxia B.V., priority 2015, dated 2020)

Assays:
4VO rat model = experiment: Histology, living neurons in CA1 region of hippocampus after 4VO; type: in vivo; conditions: 33 days after insult
Experimental: The rats were anesthetized using ketamine (90 mg/kg) and xylazine sodium ([…]), as described earlier (Meilin et al., 2014). The first cervical vertebrata was exposed and the vertebral arteries were permanently occluded by electrocauterization. The common carotid arteries were isolated through a ventral midline neck incision and lifted using a 4.0 silk suture ligature, placed around them.
Twenty-four hours post vertebral arterial occlusion, the animals were reanesthetized using isoflurane. The common carotid arteries were exposed and occluded using microaneurysm clips for 15 minutes. After removing the clips reperfusion occurred. The skin of the incision at the neck was sutured using 4-0 silk suture. During the operation animal's core temperature was monitored using a rectal probe (Model 400; YSI Inc., Yellow Springs, Ohio, USA) connected to a thermometer (Model 8402-00; Cole-Parmer Instrument Co. Ltd, London, UK). The ischemic insult was initiated when a rectal temperature of 37-38° C. was achieved, and this temperature was maintained throughout the procedure using a heating mattress.
During the acclimatization period rats were randomly assigned to experimental groups. The animals were subjected to 4VO per cage or one rat per cage was subjected to HI. Rats received either vehicle (normal saline at pH 3.8-4.0) or 2-IB (1.1 mg/kg, 3.3 mg/kg, 10 mg/kg and 30 mg/kg dissolved in 5 ml/kg normal saline at pH 3.8-4.0). Each dosing group was kept in separate cages to avoid cross-contamination by consuming stools during the study period. The experimental groups were as follows.
Rats were sacrificed at 33 days after the insult with an overdose of pentobarbital sodium (100 mg/kg i.p.). Histological analysis was performed in at least 9 rats for each group. The brains of the other 3 rats per group were snap frozen in liquid nitrogen and were stored for future analysis. The brain was perfused via the left ventricle with heparinised normal saline to remove the excess of blood from the brain. Afterwards the brain was perfused with 4% paraformaldehyde phosphate-buffered saline. The whole brain was removed and immersed in formaldehyde for at least another 72 hours. Brains were embedded in paraffin. Coronal sections ([…]) were cut at approximately 3.3 mm from the bregma and stained with hematoxylin-eosin. Sections were scored in a blinded way for living neurons in the right and left part of the CA1 region of the hippocampus, the most damaged area in this model of global ischemia. This was also considered a secondary outcome parameter.

[1] = system: cell stress associated proteins; experiment: Cell stress proteome profiler array; type: cell-based, human; conditions: for ADAMTS1 mean densitometric intensity / Bcl-2 mean densitometric intensity / CA IX mean densitometric intensity / COX-2 mean densitometric intensity / Cited 2 mean densitometric intensity / Cytochrome C mean densitometric intensity / Dkk-4 mean densitometric intensity / FABP-1 mean densitometric intensity / HIF1a mean densitometric intensity / HIF2a mean densitometric intensity / HSP60 mean densitometric intensity / HSP70 mean densitometric intensity / IDO mean densitometric intensity / NFkB1 mean densitometric intensity / PON1 mean densitometric intensity / PON2 mean densitometric intensity / PON3 mean densitometric intensity / PP53 mean densitometric intensity / SIRT2 mean densitometric intensity / SOD2 mean densitometric intensity / Thioredoxin-1 mean densitometric intensity / p21/CIP1 mean densitometric intensity / p27 mean densitometric intensity / pHSP-27 mean densitometric intensity / pJNK mean densitometric intensity / pp38a mean densitometric intensity: 2-IB (30 ng/ml)
Experimental: In vitro hypoxia was induced in the cell cultures by using our recently described system with minor modifications (Huang et al., 2013b; Weber et al., 2015; Zitta et al., 2010). Enzyme stock solutions (100×) of catalase and glucose oxidase (both from Sigma-Aldrich) were prepared in cell culture medium (DMEM/F12, 1% FCS; final concentration: 120 U/ml and 2 U/ml respectively; Sigma-Aldrich) leading to a decrease of partial pressure of oxygen (pO2) below 10 mmHg within 5 minutes. Hypoxic conditions were confirmed by using a tissue oxygen pressure monitor (LICOX® CMP Oxygen Catheter; Integra, Plainsboro, USA). After 7 hours of hypoxia, the cells were washed twice with PBS (PAA) and fresh normoxic medium supplemented with solvent (citrate buffer 1%) or 2-IB (10, 30, 50, 100 and 300 ng/mL) was added to the cells. Investigations of cell damage, metabolic activity, ROS, hydrogen peroxide, nitrite/nitrate production, erkl/2, akt and stat5 phosphorylation as well as cell stress protein expression were performed with cell culture media or cell protein (FIG. 1).
Proteome profiling was performed using commercially available cell stress proteome profiler arrays (R&D Systems, Minneapolis, USA) and the manufacturer's protocol provided with the assay kit. Equal amounts (50 μg) of protein from each experiment (N=4) were pooled and applied to the respective array membrane. Expression levels of 26 cell stress associated proteins were evaluated by densitometric analyses of the arrays using the ImageJ 1.410 software (ImageJ, NIH, USA).

[2] = Phase I clinical study pharmacokinetics, pulse i.v. infusion in healthy male subjects; type: in vivo, human; conditions: for mean AUC 4 hours: 6 pulses of 0.6 mg/kg in a 24-hour period
Source text: The pharmacokinetics of 2-IB have been investigated in a Phase I clinical study in which the safety and tolerability of single and multiple doses of 2-IB pulse i.v. infusion in healthy male subjects were investigated. The study was a randomized, double-blind, placebo-controlled, dose escalation study with 3 groups of 6 healthy male subjects receiving a single i.v. infusion or pulsed i.v. infusions of 2-IB or placebo in 3 periods. Treatments were randomized such that each subject received 2 out of 3 foreseen dose levels of 2-IB and once placebo.

[3] = 30 ng/ml 2-IB after the hypoxic insult, of 26 proteins

N=C1N[C@H]2[C@H](CS[C@H]2CCCCC(=O)O)N1 [2-IB, 2-iminobiotin]
surviving cells in the CA1 region (4VO rat model; 1.1 mg/kg/dose s.c.): 29±34 | surviving cells in the CA1 region (4VO rat model; 3.3 mg/kg/dose s.c.): 71±61 | surviving cells in the CA1 region (4VO rat model; 10 mg/kg/dose s.c.): 63±54 | surviving cells in the CA1 region (4VO rat model; 30 mg/kg/dose s.c.): 50±51 | cell stress associated proteins down regulated after hypoxia [1, 3]: 3/26 | cell stress associated proteins unchanged after hypoxia [1, 3]: 4/26 | cell stress associated proteins up regulated after hypoxia [1, 3]: 19/26 | investigated stress proteins up regulated ([1]; 30 ng/ml 2-IB for 4 hours post hypoxia): 73% | ADAMTS1 mean densitometric intensity ([1]; Hypoxia): 9.23 | Bcl-2 mean densitometric intensity ([1]; Hypoxia): 42.62 | CA IX mean densitometric intensity ([1]; Hypoxia): 23.02 | COX-2 mean densitometric intensity ([1]; Hypoxia): 13.79 | Cited 2 mean densitometric intensity ([1]; Hypoxia): 67.91 | Cytochrome C mean densitometric intensity ([1]; Hypoxia): 108.04 | Dkk-4 mean densitometric intensity ([1]; Hypoxia): 3.47 | FABP-1 mean densitometric intensity ([1]; Hypoxia): 9.02 | HIF1a mean densitometric intensity ([1]; Hypoxia): 47.93 | HIF2a mean densitometric intensity ([1]; Hypoxia): 0.00 | HSP60 mean densitometric intensity ([1]; Hypoxia): 150.57 | HSP70 mean densitometric intensity ([1]; Hypoxia): 170.82 | IDO mean densitometric intensity ([1]; Hypoxia): 0.00 | NFkB1 mean densitometric intensity ([1]; Hypoxia): 8.63 | PON1 mean densitometric intensity ([1]; Hypoxia): 0.00 | PON2 mean densitometric intensity ([1]; Hypoxia): 20.16 | PON3 mean densitometric intensity ([1]; Hypoxia): 0.00 | PP53 mean densitometric intensity ([1]; Hypoxia): 11.92 | SIRT2 mean densitometric intensity ([1]; Hypoxia): 171.53 | SOD2 mean densitometric intensity ([1]; Hypoxia): 203.11 | Thioredoxin-1 mean densitometric intensity ([1]; Hypoxia): 147.57 | p21/CIP1 mean densitometric intensity ([1]; Hypoxia): 51.41 | p27 mean densitometric intensity ([1]; Hypoxia): 4.67 | pHSP-27 mean densitometric intensity ([1]; Hypoxia): 1.65 | pJNK mean densitometric intensity ([1]; Hypoxia): 48.63 | pp38a mean densitometric intensity ([1]; Hypoxia): 3.52 | ADAMTS1 mean densitometric intensity ([1]; Normoxia): 10.32 | Bcl-2 mean densitometric intensity ([1]; Normoxia): 32.27 | CA IX mean densitometric intensity ([1]; Normoxia): 0.00 | COX-2 mean densitometric intensity ([1]; Normoxia): 8.91 | Cited 2 mean densitometric intensity ([1]; Normoxia): 44.07 | Cytochrome C mean densitometric intensity ([1]; Normoxia): 84.87 | Dkk-4 mean densitometric intensity ([1]; Normoxia): 2.81 | FABP-1 mean densitometric intensity ([1]; Normoxia): 6.67 | HIF1a mean densitometric intensity ([1]; Normoxia): 62.15 | HIF2a mean densitometric intensity ([1]; Normoxia): 0.00 | HSP60 mean densitometric intensity ([1]; Normoxia): 121.73 | HSP70 mean densitometric intensity ([1]; Normoxia): 139.78 | IDO mean densitometric intensity ([1]; Normoxia): 0.00 | NFkB1 mean densitometric intensity ([1]; Normoxia): 6.09 | PON1 mean densitometric intensity ([1]; Normoxia): 0.00 | PON2 mean densitometric intensity ([1]; Normoxia): 8.83 | PON3 mean densitometric intensity ([1]; Normoxia): 0.00 | PP53 mean densitometric intensity ([1]; Normoxia): 8.64 | SIRT2 mean densitometric intensity ([1]; Normoxia): 148.80 | SOD2 mean densitometric intensity ([1]; Normoxia): 181.53 | Thioredoxin-1 mean densitometric intensity ([1]; Normoxia): 126.34 | p21/CIP1 mean densitometric intensity ([1]; Normoxia): 43.13 | p27 mean densitometric intensity ([1]; Normoxia): 4.51 | pHSP-27 mean densitometric intensity ([1]; Normoxia): 0.79 | pJNK mean densitometric intensity ([1]; Normoxia): 39.24 | pp38a mean densitometric intensity ([1]; Normoxia): 4.72 | mean AUC 0-4 hours on average ([2]; 0.6 mg/kg pulses, during the 24-hour dosing period): about 1305 ng·h/mL | mean AUC 4 hours ([2]; after the first infusion): 1170 ng·h/mL | mean AUC 4 hours ([2]; after the last infusion): 1441 ng·h/mL
